Assay results taken from PubChem BioAssay AID256 (DTP/NCI, 2004).
Values joined by “and” are separate entries in the source; they are usually repeats but may differ in a detail not shown here. Equal values may be shown once. Inconclusive results and toxic doses are left out.

System: CD2F1 mice, L1210 leukemia ip, survival T/C
Test: NCI In Vivo Anticancer Drug Screen. Data for tumor model L1210 Leukemia (intraperitoneal) in CD2F1 (CDF1) mice
Conditions: endpoint: mean survival time, vehicle: saline, higher = longer survival
Procedure, shortened: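 Transplantable tumor in mice; compound-treated vs vehicle-treated groups. Read-out = treated/control ratio of the measured endpoint.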

Compound: CS(=O)(=O)OCCCNCCCOS(C)(=O)=O
- T/C (dose: 6.3 mg/kg/injection, schedule: Q01DX009 (ip)): 123 % of control
- T/C (dose: 6.3 mg/kg/injection, schedule: Q04DX003 (ip)): 119 % of control and 114 % of control
- T/C (dose: 10.0 mg/kg/injection, schedule: Q03DX003 (ip)): 121 % of control
- T/C (dose: 12.5 mg/kg/injection, schedule: Q01DX001 (ip)): 121 % of control and 120 % of control
- T/C (dose: 12.5 mg/kg/injection, schedule: Q04DX003 (ip)): 119 % of control
- T/C (dose: 20.0 mg/kg/injection, schedule: Q01DX007 (ip)): 162 % of control
- T/C (dose: 20.0 mg/kg/injection, schedule: Q01DX009 (ip)): 164 % of control and 170 % of control
- T/C (dose: 20.0 mg/kg/injection, schedule: Q04DX003 (ip)): 152 % of control
- T/C (dose: 23.0 mg/kg/injection, schedule: Q01DX009 (ip)): 160 % of control
- T/C (dose: 25.0 mg/kg/injection, schedule: Q01DX001 (ip)): 110 % of control
- T/C (dose: 25.0 mg/kg/injection, schedule: Q01DX009 (ip)): 162 % of control [middle of 4 runs]
- T/C (dose: 25.0 mg/kg/injection, schedule: Q04DX003 (ip)): 151 % of control and 155 % of control
- T/C (dose: 39.0 mg/kg/injection, schedule: Q01DX009 (ip)): 171 % of control
- T/C (dose: 39.0 mg/kg/injection, schedule: Q04DX003 (ip)): 152 % of control
- T/C (dose: 40.0 mg/kg/injection, schedule: Q01DX007 (ip)): 167 % of control
- T/C (dose: 40.0 mg/kg/injection, schedule: Q01DX009 (ip)): 171 % of control and 189 % of control and 206 % of control
- T/C (dose: 40.0 mg/kg/injection, schedule: Q04DX003 (ip)): 152 % of control
- T/C (dose: 50.0 mg/kg/injection, schedule: Q01DX001 (ip)): 150 % of control
- T/C (dose: 50.0 mg/kg/injection, schedule: Q01DX009 (ip)): 219 % of control and 181 % of control and 239 % of control
- T/C (dose: 50.0 mg/kg/injection, schedule: Q04DX003 (ip)): 177 % of control [middle of 4 runs]
- T/C (dose: 65.0 mg/kg/injection, schedule: Q01DX001 (oral)): 106 % of control
- T/C (dose: 65.0 mg/kg/injection, schedule: Q01DX009 (ip)): 168 % of control
- T/C (dose: 65.0 mg/kg/injection, schedule: Q01DX009 (oral)): 90 % of control
- T/C (dose: 65.0 mg/kg/injection, schedule: Q04DX003 (ip)): 179 % of control
- T/C (dose: 100.0 mg/kg/injection, schedule: Q01DX001 (ip)): 161 % of control and 172 % of control and 155 % of control
- T/C (dose: 100.0 mg/kg/injection, schedule: Q01DX009 (ip)): 95 % of control and 121 % of control
- T/C (dose: 100.0 mg/kg/injection, schedule: Q04DX003 (ip)): 261 % of control [middle of 5 runs]
- T/C (dose: 108.0 mg/kg/injection, schedule: Q01DX001 (oral)): 121 % of control
- T/C (dose: 108.0 mg/kg/injection, schedule: Q01DX009 (oral)): 86 % of control
- T/C (dose: 108.0 mg/kg/injection, schedule: Q04DX003 (ip)): 205 % of control
- T/C (dose: 108.0 mg/kg/injection, schedule: Q08DX002 (ip)): 150 % of control
- T/C (dose: 180.0 mg/kg/injection, schedule: Q01DX001 (ip)): 150 % of control
- T/C (dose: 180.0 mg/kg/injection, schedule: Q01DX001 (oral)): 119 % of control
- T/C (dose: 200.0 mg/kg/injection, schedule: Q01DX001 (ip)): 277 % of control and 288 % of control and 517 % of control
- T/C (dose: 200.0 mg/kg/injection, schedule: Q04DX003 (ip)): 121 % of control and 123 % of control
